Laboratory results as given in US7871805B2, “Glucose dehydrogenase” (Toyo Boseki Kabushiki Kaisha, priority 2006, dated 2011).
Where two headings read alike, the source gives them in different places.

What was measured:
[1] = test system: GDH derived from NBRC32032; test: Substrate specificity of purified GDH (DCPIP activity assay); format: biochemical, Penicillium italicum; conditions: for Relative activity: substrate final concentration 4 mM, activity using glucose as substrate made 100%; for action of enzyme upon substrate (in words): substrate 4 mM
Experimental: (§1) The present invention is also characterized by high substrate specificity, the action upon maltose is less than 1% of the action upon glucose, and the action upon galactose is less than 2% of the action upon glucose. The action referred to herein indicates the GDH activity at a substrate concentration of 4 mM, it is measured according to Test Example described later, and in a reaction solution composition used, for the substrate concentration, the final concentration is adjusted to 4 mM.
(§2) A reaction reagent is made by mixing 15.8 mL of the PIPES buffer, 0.2 mL of the DCPIP solution and 4 mL of the D-glucose solution.
(§3) The reaction reagent (2.9 mL) is preliminarily heated at 37° C. for 5 minutes. The GDH solution (0.1 mL) is added and gently mixed, subsequently the change of absorbance at 600 nm is recorded for 5 minutes using a spectrophotometer controlled to 37° C. using water as a control, and the change of absorbance per one minute (ΔODTEST) is calculated from a linear portion of the record. The solvent in which GDH will be dissolved in place of the blinded GDH solution is added to the reagent mixture, and the change of absorbance (ΔODBLANK) per one minute is measured. The GDH activity is calculated from these values according to the following formula. One unit (U) in the GDH activity is defined as the amount of the enzyme which reduces 1 μmol DCPIP for one minute in the presence of 200 mM D-glucose. Activity (U/mL)=[—(ΔODTEST−ΔODBLANK)×3.0×dilution scale]/(16.3×0.1×1.0)
(§4) In order to know the substrate specificity of the purified GDH solutions derived from NBRC6231 and NBRC32032 obtained in Example 1, the activity was measured using the reaction reagent in which the substance shown in Table had been dissolved at a final concentration of 4 mM.

[2] = test system: GDH derived from NBRC6231; test: as above; format: biochemical, Penicillium lilacinoechinulatum; conditions: for Relative activity: substrate final concentration 4 mM, activity using glucose as substrate made 100%; for action of enzyme upon substrate (in words): substrate 4 mM
Experimental: as §1, §2, §3, §4

[3] = test system: GDH derived from NBRC6231; test: Effects of chemicals on GDH activity; format: biochemical, Penicillium lilacinoechinulatum
[4] = test system: GDH derived from NBRC32032; test: Effects of chemicals on GDH activity; format: biochemical, Penicillium italicum
[5] = additive final concentration 2 mM, activity with no chemical made 100, GDH from NBRC6231
[6] = 2 mM, inhibited = 10% or more activity lowering, strong = 50% or more, GDH from NBRC6231
[7] = 2 mM, inhibited = 10% or more activity lowering, strong = 50% or more, GDH from NBRC32032
[8] = additive final concentration 2 mM, activity with no chemical made 100, GDH from NBRC32032

Compound	Relative activity [1]	Relative activity [2]	Relative activity [3, 5]	Relative activity [4]	also measured
OC[C@H]1O[C@H](O[C@H]2[C@H](O)[C@@H](O)C(O)O[C@@H]2CO)[C@H](O)[C@@H](O)[C@@H]1O (mixture of isomers) [Maltose]	0.2%	0.5%			
O=C[C@H](O)[C@@H](O)[C@H](O)CO [Xylose]	10.4%	10.1%			action of enzyme upon substrate (in words) [1]: acted upon; action of enzyme upon substrate (in words) [2]: acted upon
[Cl-].[Cl-].[Zn+2] [ZnCl2]			76.2	75.1	
OCC(O)CO [Glycerin]	1.7%	0.1> %			
O=C(CO)[C@@H](O)[C@H](O)[C@H](O)CO [Fructose]	0.3%	0.2%			
O=C[C@H](O)[C@@H](O)[C@@H](O)[C@H](O)CO [Galactose]	0.6%	1.0%			
OC[C@H]1O[C@@](CO)(O[C@H]2O[C@H](CO)[C@@H](O)[C@H](O)[C@H]2O)[C@@H](O[C@H]2O[C@H](CO)[C@@H](O)[C@H](O)[C@H]2O)[C@@H]1O [Melezitose]	0.5%	0.2%			
[Cl][Fe]([Cl])[Cl] [FeCl3, iron chloride (III)]				77.5	Relative activity [3]: 106; inhibitory effect (in words) ([4]; 2 mM): inhibited
O=C(CO)[C@H](O)[C@@H](O)[C@H](O)CO [Sorbose]	0.5%	0.1> %			
O=[N+]([O-])[O-].[Ag+] [AgNO3, silver nitrate]			20.9	15.0	inhibitory effect (in words) [3, 6]: strong inhibitory effect; inhibitory effect (in words) [4]: strong inhibitory effect
OC[C@H]1O[C@H](O[C@H]2O[C@H](CO)[C@@H](O)[C@H](O)[C@H]2O)[C@H](O)[C@@H](O)[C@@H]1O [Trehalose]	0.1> %	0.3%			
c1cnc2c(c1)ccc1cccnc12 [o-phenanthroline]				103	Relative activity [3]: 106
NO [Hydroxylamine]			81.5		inhibitory effect (in words) [3, 6]: inhibitory effect; inhibitory effect (in words) [4, 7]: inhibitory effect; Relative activity [4, 8]: 79.1
O=C[C@H](O)[C@H](O)[C@H](O)CO [Ribose]	0.2%	0.1> %			
[Cl-].[Cl-].[Co+2] [CoCl2]				102	Relative activity [3]: 94.1
O=C[C@@H](O)[C@H](O)[C@H](O)CO [Arabinose]	0.2%	0.2%			
OC[C@H]1O[C@H](O[C@H]2[C@H](O)[C@@H](O)[C@@H](O[C@H]3[C@H](O)[C@@H](O)[C@@H](O[C@H]4[C@H](O)[C@@H](O)C(O)O[C@@H]4CO)O[C@@H]3CO)O[C@@H]2CO)[C@H](O)[C@@H](O)[C@@H]1O (stereo partly shown) [Maltotetraose]	1.6%	0.1> %			
OB(O)O [Borate]			111	102	

Compound	Relative activity [1]	Relative activity [2]	Relative activity [3, 5]	Relative activity [4]	also measured
c1ccc(-c2ccccn2)nc1 [α,α′-dipyridyl]				102	Relative activity [3]: 109
[Cl-].[Cl-].[Mg+2] [MgCl2]			99.7	102	
O=C(O)CI [Monoiodoacetic acid]				73.3	Relative activity [3]: 68.7; inhibitory effect (in words) [3]: inhibitory effect; inhibitory effect (in words) [4]: inhibitory effect
Maltotriose	1.0%	0.2%			
[Ca+2].[Cl-].[Cl-] [CaCl2]			103	103	
[F-].[Na+] [NaF]			111	102	
OC[C@H]1O[C@@](CO)(O[C@H]2O[C@H](CO)[C@@H](O)[C@H](O)[C@H]2O)[C@@H](O)[C@@H]1O [Sucrose]	1.1%	0.6%			
CCN1C(=O)C=CC1=O [N-ethylmaleimide]			86.8		inhibitory effect (in words) [3, 6]: inhibitory effect; inhibitory effect (in words) [4, 7]: inhibitory effect; Relative activity [4, 8]: 87.8
[Cl][Ni][Cl] [NiCl2]			96.6	101	
[N-]=[N+]=[N-].[Na+] [NaN3, sodium azide]			89.3	97.8	inhibitory effect (in words) [3, 6]: inhibited
O=CC[C@@H](O)[C@H](O)[C@H](O)CO [2-deoxy-D-glucose]	17.2%	14.3%			action of enzyme upon substrate (in words) [1]: acted upon; action of enzyme upon substrate (in words) [2]: acted upon
CC(=O)[O-].CC(=O)[O-].[Ba+2] [Ba(OAc)2]			106	106	
O=S(=O)([O-])[O-].[Cu+2] [CuSO4, copper sulfate]			2.2	4.5	inhibitory effect (in words) [3, 6]: strong inhibitory effect; inhibitory effect (in words) [4]: strong inhibitory effect
CC(=O)[O-].CC(=O)[O-].[Cd+2] [Cd(OAc)2, cadmium acetate]			41.0	41.4	inhibitory effect (in words) [3, 6]: strong inhibitory effect; inhibitory effect (in words) [4]: strong inhibitory effect
[Cl][Mn][Cl] [MnCl2]			93.4	99.1	
NC(=O)CI [Iodoacetamide]				101	Relative activity [3]: 111
O=C(O)CN(CCN(CC(=O)O)CC(=O)O)CC(=O)O [EDTA]				104	Relative activity [3]: 113
